Drawing on ChEMBL document CHEMBL1144775, “Secondary metabolites from three Florida sponges with antidepressant activity” (J Nat Prod, 2008), this text covers Activity for four compounds.

Active and inactive are the calls of the source. No cut-off for these calls is given here.

In data set [1] the test system is Gallus gallus. Nature of the data set: Antidepressant activity in Cockerels assessed as attenuation separation distress vocalization rate in final 30 mins of depression phase at 30 mg/kg, ip. Details: dose 30 mg/kg. In kind it is functional, organism-based.
Data set [2] has as its system Gallus gallus. Nature of the data set: Anxiolytic activity in Cockerels assessed as attenuation separation distress vocalization rate during first 5 mins in anxiety phase at 30 mg/kg, ip. It is filed as functional, organism-based. Details: dose 30 mg/kg.
For data set [3], the system named is Mus musculus. Nature of the data set: Antidepressant like activity in Swiss Webster mouse assessed as reduction of immobility time at 20 mg/kg, ip after 30 mins by forced-swim test. In kind it is functional, organism-based. Details: dose 20 mg/kg.
For data set [4], the species on record is Mus musculus. Nature of the data set: Sedative effect in Swiss Webster mouse assessed as locomotor activity. The following applies: in vivo. It is filed as organism-based.
For data set [5], the system named is Mus musculus. The experiment in a line: Antidepressant like activity in ip dosed Swiss Webster mouse assessed as reduction of immobility time by forced-swim test. It is filed as functional, organism-based.

For the compound `CN(C)CCc1c[nH]c2cc(Br)c(Br)cc12`, the outcome in data set [1], in data set [2] and in data set [3] was Active.

For `CN(C)CCc1c[nH]c2ccc(Br)cc12`, the result in data set [4] was Active. Further, the outcome in data set [5] was inactive.

Consider `CN1C(=N)N(C)/C(=C/c2c[nH]c3ccccc23)C1=O`, for which, in data set [5], the result was inactive.

For `C=C1CCC[C@H]2[C@](C)(CC3=C(O)C(=O)C=C(OC)C3=O)[C@@H](C)CC[C@]12C`, the outcome in data set [5] was inactive.
